Test results published in ChEMBL document CHEMBL4373715, “Discovery and Biological Evaluations of Halogenated 2,4-Diphenyl Indeno[1,2-b]pyridinol Derivatives as Potent Topoisomerase IIα-Targeted Chemotherapeutic Agents for Breast Cancer” (J Med Chem, 2019).

What was measured:
[1] = test system: DU-145; experiment: Antiproliferative activity against human DU145 cells measured after 72 hrs by EZ-Cytox assay; type: functional, cell-based; settings: DU-145, 72 h
[2] = test system: HeLa; experiment: Antiproliferative activity against human HeLa cells measured after 72 hrs by EZ-Cytox assay; type: functional, cell-based
[3] = test system: T47D; experiment: Antiproliferative activity against human T47D cells measured after 72 hrs by EZ-Cytox assay; type: functional, cell-based
[4] = target: DNA topoisomerase 2-alpha (Homo sapiens) (UniProt P11388); experiment: Inhibition of recombinant human topoisomerase 2alpha-mediated relaxation of supercoiled pBR322 DNA at 20 uM measured after 30 mins by ethidium bromide staining based agarose gel electrophoresis relative to control
[5] = test system: HCT-15; experiment: Antiproliferative activity against human HCT15 cells measured after 72 hrs by EZ-Cytox assay; type: functional, cell-based; settings: HCT-15, 72 h
[6] = target: T1, DNA topoisomerase 1 (Homo sapiens) (UniProt P11387); experiment: Inhibition of recombinant human topoisomerase 1-mediated relaxation of supercoiled pBR322 DNA at 100 uM measured after 30 mins by ethidium bromide staining based agarose gel electrophoresis relative to control
T1 sequence (whole entry): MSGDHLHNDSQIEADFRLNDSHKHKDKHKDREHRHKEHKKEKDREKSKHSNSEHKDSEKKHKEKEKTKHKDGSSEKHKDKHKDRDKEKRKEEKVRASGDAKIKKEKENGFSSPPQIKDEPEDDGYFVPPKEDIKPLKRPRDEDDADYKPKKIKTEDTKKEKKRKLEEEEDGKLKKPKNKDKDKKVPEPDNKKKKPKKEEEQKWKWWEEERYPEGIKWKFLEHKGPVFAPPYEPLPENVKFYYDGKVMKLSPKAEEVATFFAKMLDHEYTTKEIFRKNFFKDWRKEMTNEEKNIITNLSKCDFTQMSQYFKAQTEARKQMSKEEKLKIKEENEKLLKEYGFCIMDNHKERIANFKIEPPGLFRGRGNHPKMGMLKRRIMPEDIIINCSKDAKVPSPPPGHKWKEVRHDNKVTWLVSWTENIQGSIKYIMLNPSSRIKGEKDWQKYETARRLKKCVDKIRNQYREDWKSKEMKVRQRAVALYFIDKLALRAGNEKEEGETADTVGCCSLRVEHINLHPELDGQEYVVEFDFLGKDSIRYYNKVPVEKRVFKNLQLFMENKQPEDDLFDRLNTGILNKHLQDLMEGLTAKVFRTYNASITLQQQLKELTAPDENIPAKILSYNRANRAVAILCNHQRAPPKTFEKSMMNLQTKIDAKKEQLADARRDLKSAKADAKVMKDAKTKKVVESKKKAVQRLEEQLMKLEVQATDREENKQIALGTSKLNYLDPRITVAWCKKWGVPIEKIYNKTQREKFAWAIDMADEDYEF

[7] = target: DNA topoisomerase 2-alpha (Homo sapiens) (UniProt P11388); experiment: Inhibition of recombinant human topoisomerase 2alpha-mediated relaxation of supercoiled pBR322 DNA at 100 uM measured after 30 mins by ethidium bromide staining based agarose gel electrophoresis relative to control

Chain of DNA topoisomerase 2-alpha (Homo sapiens) (P11388 whole entry): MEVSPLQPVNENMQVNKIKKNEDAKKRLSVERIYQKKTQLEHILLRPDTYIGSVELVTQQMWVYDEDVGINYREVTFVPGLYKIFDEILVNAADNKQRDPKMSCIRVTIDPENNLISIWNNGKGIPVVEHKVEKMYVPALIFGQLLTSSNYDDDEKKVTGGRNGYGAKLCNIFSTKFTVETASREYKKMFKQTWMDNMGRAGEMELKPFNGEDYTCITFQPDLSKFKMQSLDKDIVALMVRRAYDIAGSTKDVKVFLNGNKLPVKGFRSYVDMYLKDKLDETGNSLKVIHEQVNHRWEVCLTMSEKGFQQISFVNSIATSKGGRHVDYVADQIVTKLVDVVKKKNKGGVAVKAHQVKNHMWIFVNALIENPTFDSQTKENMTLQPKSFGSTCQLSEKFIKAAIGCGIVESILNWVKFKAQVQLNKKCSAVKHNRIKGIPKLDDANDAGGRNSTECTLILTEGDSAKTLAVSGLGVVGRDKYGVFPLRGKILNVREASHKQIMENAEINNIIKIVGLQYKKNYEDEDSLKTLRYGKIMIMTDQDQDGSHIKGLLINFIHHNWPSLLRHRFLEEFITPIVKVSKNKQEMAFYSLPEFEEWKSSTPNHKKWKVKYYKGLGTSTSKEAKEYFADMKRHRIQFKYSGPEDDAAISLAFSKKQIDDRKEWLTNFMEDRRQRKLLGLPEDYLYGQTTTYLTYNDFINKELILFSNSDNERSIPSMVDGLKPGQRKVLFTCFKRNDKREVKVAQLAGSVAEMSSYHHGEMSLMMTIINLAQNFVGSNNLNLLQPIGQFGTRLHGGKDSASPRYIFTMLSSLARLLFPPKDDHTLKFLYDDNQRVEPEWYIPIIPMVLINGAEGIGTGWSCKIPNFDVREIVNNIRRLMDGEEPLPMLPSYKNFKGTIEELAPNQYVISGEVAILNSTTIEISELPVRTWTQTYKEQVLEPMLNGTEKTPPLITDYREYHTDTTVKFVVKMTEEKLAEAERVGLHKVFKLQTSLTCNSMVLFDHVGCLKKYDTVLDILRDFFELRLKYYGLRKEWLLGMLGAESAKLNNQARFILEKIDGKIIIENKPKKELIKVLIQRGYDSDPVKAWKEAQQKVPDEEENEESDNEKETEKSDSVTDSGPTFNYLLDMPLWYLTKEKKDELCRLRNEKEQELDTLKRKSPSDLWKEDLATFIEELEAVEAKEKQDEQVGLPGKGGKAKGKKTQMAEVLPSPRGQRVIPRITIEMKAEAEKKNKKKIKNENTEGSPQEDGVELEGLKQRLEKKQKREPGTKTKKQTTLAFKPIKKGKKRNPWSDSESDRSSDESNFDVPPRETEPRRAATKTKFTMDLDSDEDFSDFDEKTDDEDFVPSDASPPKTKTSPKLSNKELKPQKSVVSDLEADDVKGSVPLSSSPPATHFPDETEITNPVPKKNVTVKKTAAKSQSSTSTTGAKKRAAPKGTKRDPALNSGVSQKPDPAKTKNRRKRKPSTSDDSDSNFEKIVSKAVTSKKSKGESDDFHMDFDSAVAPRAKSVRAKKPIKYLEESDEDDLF

| SMILES | inhibition [4] [%] | inhibition [6] [%] | inhibition [7] [%] | IC50 [1] [nM] | IC50 [2] [nM] | IC50 [3] [nM] | IC50 [5] [nM] |
| --- | --- | --- | --- | --- | --- | --- | --- |
| Oc1ccccc1-c1cc(-c2cccc(Cl)c2)c2c(n1)-c1cccc(O)c1C2 | 1.5 | 0 | 75.4 | 6010 | 20500 | 12000 | 2450 |
| Oc1ccc2c(c1)Cc1c(-c3ccccc3O)cc(-c3ccc(C(F)(F)F)cc3)nc1-2 | 11.9 | 0 | 99.9 | 2090 | 7870 | 830 | 4330 |
| Oc1cccc(-c2cc(-c3ccc(F)cc3)nc3c2Cc2ccc(O)cc2-3)c1 | 5.4 | 11.7 | 48.3 | 1060 | 3820 | 680 | 1460 |
| Oc1ccc2c(c1)-c1nc(-c3ccc(C(F)(F)F)cc3)cc(-c3ccccc3O)c1C2 | 3 | 0 | 100 | 2800 | 2230 | 670 | 3250 |
| Oc1cccc(-c2cc(-c3ccccc3Cl)nc3c2Cc2cc(O)ccc2-3)c1 | 32.3 | 5.6 | 100 | 810 | 910 | 780 | 1.33 |
| Oc1cccc2c1Cc1c(-c3ccccc3)cc(-c3ccccc3)nc1-2 | 1.3 | 4.6 | 75.7 | 2710 | 4180 | 1770 | 3390 |
| Oc1cccc(-c2cc(-c3ccccc3)nc3c2Cc2c(O)cccc2-3)c1 | 0 | 4.6 | 95.4 | 190 | 6740 | 2890 | 2520 |
| Oc1cccc(-c2cc(-c3ccccc3C(F)(F)F)nc3c2Cc2ccc(O)cc2-3)c1 | 3.1 | 1.8 | 79 | 1830 | 3710 | 1220 | 1670 |
| Oc1ccccc1-c1cc(-c2ccccc2C(F)(F)F)nc2c1Cc1c(O)cccc1-2 | 1.8 | 3.5 | 83.7 | 1380 | 3950 | 3020 | 1740 |
| Oc1cccc(-c2cc(-c3cccc(C(F)(F)F)c3)nc3c2Cc2ccc(O)cc2-3)c1 | 10.5 | 5.2 | 90.7 | 1540 | 4700 | 1330 | 8610 |
| Oc1cccc(-c2cc(-c3ccccc3Cl)nc3c2Cc2c(O)cccc2-3)c1 | 24.9 | 0 | 100 | 920 | 590 | 1530 | 800 |

More lines, main results first:

| inhibition [4] [%] | inhibition [6] [%] | inhibition [7] [%] | SMILES | IC50 [1] [nM] | IC50 [2] [nM] | IC50 [3] [nM] | IC50 [5] [nM] |
| --- | --- | --- | --- | --- | --- | --- | --- |
| 0 | 0 | 74.5 | Oc1ccc(-c2cc(-c3ccc(Cl)cc3)nc3c2Cc2ccc(O)cc2-3)cc1 | 2250 | 1730 | 1150 | 3220 |
| 13.3 | 3.2 | 71.6 | Oc1ccc(-c2cc(-c3cccc(Cl)c3)c3c(n2)-c2c(O)cccc2C3)cc1 | 6040 | 43800 | 19000 | > 50000 |
| 3.2 | 13.1 | 80 | Oc1ccccc1-c1cc(-c2cccc(Cl)c2)nc2c1Cc1cccc(O)c1-2 | 220 | 3620 | 960 | 1310 |
| 26.5 | 7.4 | 85.2 | Oc1cccc(-c2cc(-c3ccc(Cl)cc3)nc3c2Cc2cccc(O)c2-3)c1 | 360 | 6740 | 3500 | 3050 |
| 56.4 | 8.7 | 71.3 | Oc1ccc(-c2cc(-c3cccc(Cl)c3)nc3c2Cc2ccc(O)cc2-3)cc1 | 480 | > 50000 | 600 | 2360 |
